In patent US20250145594A1, “MODULATORS OF THE INTEGRATED STRESS PATHWAY” (Calico Life Sciences LLC, priority 2020, published 2025):

Tested on: ATF4 luciferase reporter in HEK293T cells
Experiment: ATF4-Luc assay (in vitro model of VWMD)
Assay type: cell-based, human
Conditions: HEK293T cells carrying the ATF4 luciferase reporter, 1 μg/mL tunicamycin, One Glo luminescence
Protocol: In order to test exemplary compounds of the invention in a cellular context, a stable VWMD cell line was first constructed. The ATF4 reporter was prepared by fusing the human full-length ATF4 5′-UTR (NCBI Accession No. BC022088.2) in front of the firefly luciferase (FLuc) coding sequence lacking the initiator methionine as described in Sidrauski et al (eLife 2013). The construct was used to produce recombinant retroviruses using standard methods and the resulting viral supernatant was used to transduce HEK293T cells, which were then subsequently selected with puromycin to generate a stable cell line.
HEK293T cells carrying the ATF4 luciferase reporter were plated on polylysine coated 384-well plates (Greiner Bio-one) at 30,000 cells per well. Cells were treated the next day with 1 μg/mL tunicamycin and 200 nM of a compound of Formula (I) for 7 hours. Luminescence was measured using One Glo (Promega) as specified by the manufacturer. Cells were maintained in DMEM with L-glutamine supplemented with 10% heat-inactivated FBS (Gibco) and Antibiotic-Antimycotic solution (Gibco).
Table 4 below summarizes the EC50 data obtained using the ATF4-Luc assay for exemplary compounds of the invention.

| Structure (SMILES) | EC50 (Homo sapiens, HEK-293T, 7 h) [nM] | EC50 (7 hours) [nM] |
| --- | --- | --- |
| O=C(NC12CC(n3cc(OCCOC(F)(F)F)cn3)(C1)C2)C1CNc2cc(C(F)(F)F)c(F)cc2O1 (centres unmarked) [Compound 592, 7-fluoro-N-(3-{4-[2-(trifluoromethoxy)ethoxy]-1H-pyrazol-1-yl}bicyclo[1.1.1]pentan-1-yl)-6-(trifluoromethyl)-3,4-dihydro-2H-1,4-benzoxazine-2-carboxamide] | 10 to 50 | – |
| O=C(CO[C@H]1C[C@@H](OC(F)(F)F)C1)NC12CC(NC(=O)[C@@H]3C[C@@H](O)c4cc(Cl)ccc4O3)(C1)C2 [Compound 208, (2S,4R)-6-chloro-4-hydroxy-N-[3-(2-{[cis-3-(trifluoromethoxy)cyclobutyl]oxy}acetamido)bicyclo[1.1.1]pentan-1-yl]-3,4-dihydro-2H-1-benzopyran-2-carboxamide] | < 10 | – |
| O=C(COc1ccc(Cl)c(F)c1)NC12CC(n3cc(OCCOC(F)(F)F)cn3)(C1)C2 [Compound 617, 2-(4-chloro-3-fluorophenoxy)-N-(3-{4-[2-(trifluoromethoxy)ethoxy]-1H-pyrazol-1-yl}bicyclo[1.1.1]pentan-1-yl)acetamide] | – | < 10 |
| COc1cc2cn(C34CC(NC(=O)[C@H]5C[C@@H](O)c6cc(C(F)(F)F)ccc6O5)(C3)C4)nc2cn1 [Compound 499, (2R,4R)-4-hydroxy-N-[3-(5-methoxy-2H-pyrazolo[3,4-c]pyridin-2-yl)bicyclo[1.1.1]pentan-1-yl]-6-(trifluoromethyl)-3,4-dihydro-2H-1-benzopyran-2-carboxamide] | 10 to 50 | – |
| O=C(NC12CC(n3cc(CN4CC[C@H](OC(F)(F)F)C4)cn3)(C1)C2)[C@H]1C[C@@H](O)c2cc(Cl)ccc2O1 [Compound 339, (2R,4R)-6-chloro-4-hydroxy-N-[3-(4-{[(3S)-3-(trifluoromethoxy)pyrrolidin-1-yl]methyl}-1H-pyrazol-1-yl)bicyclo[1.1.1]pentan-1-yl]-3,4-dihydro-2H-1-benzopyran-2-carboxamide] | 250 to 500 | – |
| O=C(NC12CC(n3cc(-c4ccc(OC(F)(F)F)cn4)cn3)(C1)C2)[C@@H]1C[C@H](O)c2cc(C(F)(F)F)ccc2O1 [Compound 338, (2S,4S)-4-hydroxy-N-(3-{4-[5-(trifluoromethoxy)pyridin-2-yl]-1H-pyrazol-1-yl}bicyclo[1.1.1]pentan-1-yl)-6-(trifluoromethyl)-3,4-dihydro-2H-1-benzopyran-2-carboxamide] | < 10 | – |
| O=C(NCc1ccc(C(F)(F)F)cn1)[C@H]1C[C@H]2O[C@@H]1CC2NC(=O)[C@H]1C[C@@H](O)c2cc(Cl)ccc2O1 (mixture of isomers) [Compound 313, (2R,4R)-6-chloro-4-hydroxy-N-[(1RS,2SR,4RS,5SR)-5-({[5-(trifluoromethyl)pyridin-2-yl]methyl}carbamoyl)-7-oxabicyclo[2.2.1]heptan-2-yl]-3,4-dihydro-2H-1-benzopyran-2-carboxamide] | 250 to 500 | – |
| Cc1ccc(-c2cnn(C34CC(NC(=O)[C@H]5C[C@@H](O)c6cc(Cl)ccc6O5)(C3)C4)c2)nc1 [Compound 554, (2R,4R)-6-chloro-4-hydroxy-N-{3-[4-(5-methylpyridin-2-yl)-1H-pyrazol-1-yl]bicyclo[1.1.1]pentan-1-yl}-3,4-dihydro-2H-1-benzopyran-2-carboxamide] | < 10 | – |
| O=C(NC12CC(c3cnc(OCCOC(F)(F)F)o3)(C1)C2)[C@H]1C[C@@H](O)c2cc(Cl)ccc2O1 [Compound 414, (2R,4R)-6-chloro-4-hydroxy-N-(3-{2-[2-(trifluoromethoxy)ethoxy]-1,3-oxazol-5-yl}bicyclo[1.1.1]pentan-1-yl)-3,4-dihydro-2H-1-benzopyran-2-carboxamide] | < 10 | – |
| O=C(N[C@@H]1CC[C@@H](C(=O)N2CC(c3ccc(C(F)(F)F)cc3)C2)OC1)[C@H]1C[C@@H](O)c2cc(Cl)ccc2O1 [Compound 322, (2R,4R)-6-chloro-4-hydroxy-N-[(3R,6S)-6-{3-[4-(trifluoromethyl)phenyl]azetidine-1-carbonyl}oxan-3-yl]-3,4-dihydro-2H-1-benzopyran-2-carboxamide] | < 10 | – |
| O=C(COC12CC(NC(=O)[C@H]3C[C@@H](O)c4cc(Cl)ccc4O3)(C1)C2)N[C@H]1C[C@@H](OC(F)(F)F)C1 [Compound 342, (2R,4R)-6-chloro-4-hydroxy-N-[3-(2-oxo-2-{[cis-3-(trifluoromethoxy)cyclobutyl]amino}ethoxy)bicyclo[1.1.1]pentan-1-yl]-3,4-dihydro-2H-1-benzopyran-2-carboxamide] | 10 to 50 | – |
| O=C(NC12CC(c3ccnc(OCCOC(F)(F)F)n3)(C1)C2)[C@H]1C[C@@H](O)c2cc(Cl)ccc2O1 [Compound 525, (2R,4R)-6-chloro-4-hydroxy-N-(3-{2-[2-(trifluoromethoxy)ethoxy]pyrimidin-4-yl}bicyclo[1.1.1]pentan-1-yl)-3,4-dihydro-2H-1-benzopyran-2-carboxamide] | 10 to 50 | – |
| O=C(NC12CC(n3cc(N4CC[C@@H](OC(F)(F)F)C4)cn3)(C1)C2)[C@H]1C[C@@H](O)c2cc(Cl)c(F)cc2O1 [Compound 389, (2R,4R)-6-chloro-7-fluoro-4-hydroxy-N-(3-{4-[(3R)-3-(trifluoromethoxy)pyrrolidin-1-yl]-1H-pyrazol-1-yl}bicyclo[1.1.1]pentan-1-yl)-3,4-dihydro-2H-1-benzopyran-2-carboxamide] | < 10 | – |
| O=C(N[C@H]1CC[C@H](n2cc(OCCOC(F)(F)F)cn2)CC1)[C@H]1C[C@H](O)c2cc(C(F)(F)F)c(F)cc2O1 [Compound 486, (2R,4R)-7-fluoro-4-hydroxy-N-[(1r,4R)-4-{4-[2-(trifluoromethoxy)ethoxy]-1H-pyrazol-1-yl}cyclohexyl]-6-(trifluoromethyl)-3,4-dihydro-2H-1-benzopyran-2-carboxamide] | < 10 | – |
| O=C(N[C@H]1CC[C@H](n2cc(OCCOC(F)(F)F)cn2)CC1)[C@H]1C[C@H](O)c2cc(Cl)ccc2O1 [Compound 447, (2R,4S)-6-chloro-4-hydroxy-N-[(1r,4R)-4-{4-[2-(trifluoromethoxy)ethoxy]-1H-pyrazol-1-yl}cyclohexyl]-3,4-dihydro-2H-1-benzopyran-2-carboxamide] | 50 to 250 | – |
| COc1ncc(-c2cnn(C34CC(NC(=O)[C@H]5C[C@@H](O)c6cc(Cl)ccc6O5)(C3)C4)c2)cn1 [Compound 320, (2R,4R)-6-chloro-4-hydroxy-N-{3-[4-(2-methoxypyrimidin-5-yl)-1H-pyrazol-1-yl]bicyclo[1.1.1]pentan-1-yl}-3,4-dihydro-2H-1-benzopyran-2-carboxamide] | 10 to 50 | – |
| O=C(NC12CC(n3cc(C(=O)N4CC[C@@H](COC(F)(F)F)C4)cn3)(C1)C2)[C@H]1C[C@@H](O)c2cc(Cl)ccc2O1 [Compound 397, (2R,4R)-6-chloro-4-hydroxy-N-[3-(4-{(3R)-3-[(trifluoromethoxy)methyl]pyrrolidine-1-carbonyl}-1H-pyrazol-1-yl)bicyclo[1.1.1]pentan-1-yl]-3,4-dihydro-2H-1-benzopyran-2-carboxamide] | 50 to 250 | – |
| O=C(NC12CC(n3cc(-c4ccc(OC(F)(F)F)cn4)cn3)(C1)C2)[C@H]1C[C@H](O)c2cc(Cl)ccc2O1 [Compound 545, (2R,4S)-6-chloro-4-hydroxy-N-(3-{4-[5-(trifluoromethoxy)pyridin-2-yl]-1H-pyrazol-1-yl}bicyclo[1.1.1]pentan-1-yl)-3,4-dihydro-2H-1-benzopyran-2-carboxamide] | < 10 | – |
| O=C(N[C@H]1CC[C@H](n2cc(OCCOC(F)(F)F)cn2)CC1)[C@H]1C[C@@H](O)c2cc(Cl)ccc2O1 [Compound 421, (2R,4R)-6-chloro-4-hydroxy-N-[(1r,4R)-4-{4-[2-(trifluoromethoxy)ethoxy]-1H-pyrazol-1-yl}cyclohexyl]-3,4-dihydro-2H-1-benzopyran-2-carboxamide] | < 10 | – |
| O=C(NC12CC(n3cc(C(=S)N4CC[C@H](OC(F)(F)F)C4)cn3)(C1)C2)[C@H]1C[C@@H](O)c2cc(Cl)ccc2O1 [Compound 390, (2R,4R)-6-chloro-4-hydroxy-N-(3-{4-[(3S)-3-(trifluoromethoxy)pyrrolidine-1-carbothioyl]-1H-pyrazol-1-yl}bicyclo[1.1.1]pentan-1-yl)-3,4-dihydro-2H-1-benzopyran-2-carboxamide] | < 10 | – |
| O=C(NC12CC(n3cc(-c4ccc(OC(F)(F)F)cn4)cn3)(C1)C2)[C@H]1C[C@H](O)c2cc(C(F)(F)F)ccc2O1 [Compound 551, (2R,4S)-4-hydroxy-N-(3-{4-[5-(trifluoromethoxy)pyridin-2-yl]-1H-pyrazol-1-yl}bicyclo[1.1.1]pentan-1-yl)-6-(trifluoromethyl)-3,4-dihydro-2H-1-benzopyran-2-carboxamide] | < 10 | – |
| O=C(COc1ccc(Cl)c(F)c1)NC12CC(c3ccc(OCCCOC(F)(F)F)nc3)(C1)C2 [Compound 455, 2-(4-chloro-3-fluorophenoxy)-N-(3-{6-[3-(trifluoromethoxy)propoxy]pyridin-3-yl}bicyclo[1.1.1]pentan-1-yl)acetamide] | 50 to 250 | – |
| O=C(NC12CC(n3cc(O[C@H]4C[C@H](COC(F)(F)F)C4)cn3)(C1)C2)[C@H]1C[C@@H](O)c2cc(Cl)ccc2O1 [Compound 588, (2R,4R)-6-chloro-4-hydroxy-N-{3-[4-(((1r,3R)-3-[(trifluoromethoxy)methyl]cyclobutyl}oxy)-1H-pyrazol-1-yl]bicyclo[1.1.1]pentan-1-yl)-3,4-dihydro-2H-1-benzopyran-2-carboxamide] | 10 to 50 | – |
